The results in this text go back to US4758558A, “N-(substituted)-[7-(2-cyanoacetamido)cephalosporanic]amide derivatives having antibiotic utility” (priority 1982, dated 1988).

One data set relates to Escherichia coli. Kind of data set: Effect on intestinal bacteria: number of Escherichia coli in feces. In kind it is in vivo, ICR mice. As to conditions: after oral administration for 2 days, 500 mg/kg/day, female ICR mice; before: 6.4.
The test system of data set [1] is Staphylococcus aureus IAM 1011. Briefly: Treatment of experimental infectious disease in mouse due to Staphylococcus aureus. It is filed as in vivo, ddY SPE mice. As to conditions: oral, two times just after and 4 hours after inoculation; 2.3×10^8 cells i.p. From the text:
(§1) (e) Effectiveness in treating experimental infectious disease due to bacteria:
(§2) (Refer to Example 22 for the details of the test.) As the result, while all the twenty mice artificially infected with each of the two bacterial species and not-treated with any of the present compound died on the second day of inoculation, more than 40% of the twenty mice artificially infected with each of the two bacterial species and administered with each of the three present compounds were alive even after 7 days of inoculation.
(§3) Effectiveness of the present compound in treatment of an experimental infectious disease in mouse
(2) Disease due to infection of Staphylococcus aureus
Each mouse of the two groups (20 animals/group) of ddY SPE mice was inoculated with 2.3×10^8 cells of Staphylococcus aureus IAM 1011 intraperitoneally, and then, each mouse of the one of the two groups was administered orally with one of the present compounds, namely the compound produced in Example 5, 10 or 13, two times just after and 4 hours after the inoculation, while the 20 mice of the other group were not administered.

Data set [2] deals with Escherichia coli IFO 12734. Briefly: Treatment of experimental infectious disease in mouse due to Escherichia coli. In kind it is in vivo, ddY SPE mice. As to conditions: oral, two times just after and 4 hours after inoculation; 1.4×10^8 cells i.p.
Source text: as §1, §2, §3
(1) Disease due to infection of Escherichia coli
Each mouse of the two groups (20 animals/group) of ddY SPE mice was inoculated with 1.4×10^8 cells of Escherichia coli IFO 12734 intraperitoneally, and then, each mouse of the one of the two groups was administered orally with one of the present compounds, namely the compound produced in Example 5, 10 or 13, two times just after and 4 hours after the inoculation, while the 20 mice of the other group were not administered.

The next data set concerns Pseudomonas aeruginosa. Briefly: Effect on intestinal bacteria: number of Pseudomonas aeruginosa in feces. Particulars: mouse, in vivo, po, 500 mg/kg/day. It is filed as in vivo, ICR mice. In short, it runs like this:
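Female ICR mice aged 6 weeks, five per group, were dosed orally for 2 days at 500 mg/kg/day. Feces were taken before dosing and one day after. Specimens were diluted 100-fold in anaerobic phosphate buffer, ground, plated on selective media (NAC agar, 37° C, one day), and colonies were counted.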

The test system of data set [3] is Escherichia coli IFO 12734. Briefly: Antibacterial activity in vitro (MIC) against Escherichia coli. It is filed as cell-based. As to conditions: IFO12734, Mueller-Hinton agar, 18 to 24 hours, 37° C., read-out: MIC (minimum growth inhibiting concentration) against Escherichia coli. In short, it runs like this: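 Agar-dilution MIC by the Japan Society of Chemotherapy standard method: compound dilutions mixed 1:9 with Mueller-Hinton agar, strains streaked about 2 cm with a loop. Plates incubated 18 to 24 hours at 37° C. MIC is the lowest concentration giving complete growth inhibition.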

Data set [4] relates to a species of Streptococcus. Briefly: Effect on intestinal bacteria: number of a sp. of Streptococcus in feces. In kind it is in vivo, ICR mice. Particulars: mouse, in vivo, po, 500 mg/kg/day. A digest of the protocol:
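Female ICR mice aged 6 weeks (five per group) received compound orally at 500 mg/kg/day for 2 days. Feces collected before dosing and one day after were diluted 100-fold in anaerobic phosphate buffer and plated on TATAC agar. Streptococcus colonies were counted after one day at 37 °C.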

Another data set relates to Lactobacillus bifidus. Briefly: Effect on intestinal bacteria: number of Lactobacillus bifidus in feces. It is filed as in vivo, ICR mice. As to conditions: mouse, in vivo, po, 500 mg/kg/day. In short, it runs like this:
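Female ICR mice aged 6 weeks (five per group) were dosed orally with compound at 500 mg/kg/day for 2 days. Feces taken before and one day after dosing were diluted 100-fold in anaerobic phosphate buffer and plated. Bacterial counts determined after incubation, BS agar at 37 °C for 5 days.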

For data set [5], the system named is a species of Lactobacillus. Kind of data set: Effect on intestinal bacteria: number of a sp. of Lactobacillus in feces. In kind it is in vivo, ICR mice. As to conditions: mouse, in vivo, po, 500 mg/kg/day. In short, it runs like this:
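Female ICR mice (6 weeks, five per group) received compound orally at 500 mg/kg/day for 2 days. Feces taken before and one day after dosing were diluted 100-fold in anaerobic phosphate buffer and plated on LBS agar. Lactobacillus colonies were counted after 5 days at 37° C.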

The subject of the next data set is a species of Bacteroides. Kind of data set: Effect on intestinal bacteria: number of a sp. of Bacteroides in feces. It is filed as in vivo, ICR mice. As to conditions: mouse, in vivo, po, 500 mg/kg/day. A digest of the protocol: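 Five female ICR mice (6 weeks old) per group received compound orally at 500 mg/kg/day for 2 days. Feces taken before and one day after dosing were diluted 100-fold in anaerobic phosphate buffer, and 0.1 ml was plated on NBGT agar. Bacteroides colonies were counted after 5 days at 37 °C.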

Data set [6] concerns Staphylococcus aureus IAM 1011. Kind of data set: Antibacterial activity in vitro (MIC) against Staphylococcus aureus. Particulars: IAM1011, Mueller-Hinton agar, 18 to 24 hours, 37° C., read-out: MIC (minimum growth inhibiting concentration) against Staphylococcus aureus. In kind it is cell-based. A digest of the protocol: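 Agar dilution MIC per Japan Society of Chemotherapy standard: compound dilutions mixed with 9 parts Mueller-Hinton medium to make plates, bacteria streaked ~2 cm with platinum loop. Incubated 18 to 24 hours at 37° C; MIC = lowest concentration completely inhibiting growth.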

As for `COC(=O)c1ccc(NC(=O)C2=C(CSc3nnc(C)s3)CSC3C(NC(=O)Cn4cnnn4)C(=O)N23)cc1` (stereo not shown) [Example 13, N-(4-carbomethoxyphenyl)-{7-(1-1H-tetrazolylacetamido)-3-[2-(5-methyl-1,3,4-thiadiazolyl)thiomethyl]-3-cephem-4-carboxylic}amide], the “Number of Escherichia coli after the administration” value in the data set with Escherichia coli is recorded as 6.4 Log10 (number of bacteria/g feces). The “mice alive on the 7th day of inoculation (Staphylococcus aureus infection)” value in data set [1] was “more than 60%”. For the same compound, the “mice alive on the 7th day of inoculation (Escherichia coli infection)” value in [2] is “more than 80%”. Besides, the “Number of Pseudomonas aeruginosa after the administration” value in the data set on Pseudomonas aeruginosa is < 3.0 Log10 (number of bacteria/g feces). Moreover, the MIC in data set [3] is no less than 100 µg/mL; in data set [6], no less than 12.5 µg/mL. Also, the “Number of a sp. of Streptococcus after the administration” value in data set [4] is on record as 6.6 Log10 (number of bacteria/g feces). Besides, in the data set with Lactobacillus bifidus, the “Number of Lactobacillus bifidus after the administration” value is reported as 8.4 Log10 (number of bacteria/g feces). The “Number of a sp. of Lactobacillus after the administration” value in data set [5] is 9.0 Log10 (number of bacteria/g feces). For the same compound, the “Number of a sp. of Bacterioides after the administration” value in the data set with a species of Bacteroides was 8.7 Log10 (number of bacteria/g feces).
